Data on 22 molecules can be found in US5610310A, “Cyclic lipid derivatives as potent PAF antagonists” (Pohang Iron & Steel Co., Ltd, priority 1995, dated 1997).

The test system of assay [1] is PAF-induced platelet aggregation, rabbit platelet-rich plasma. In words: Inhibitory action on PAF-induced platelet aggregation. The note with it: Oryctolagus cuniculus, rabbit PRP, PAF 5×10^-9 M, 37° C. In kind it is cell-based, rabbit (New Zealand white). The procedure:
Inhibitory action on PAF-induced platelet aggregation Blood was collected from the […] of conscious New Zealand white male rabbits weighing 2 to 3 kg using citric acid as an anticoagulant (one volume pan of 3% citric acid relative to 9 volume parts of the whole blood). […] PRP was diluted with PPP to adjust the number of platelets to about 3×10^5 /μl. […] Platelet aggregation was then examined by means of turbidimetry [Born, Nature, 194, 927(1962)] with dual channel aggegometer (Chrono-Log. Corp., Havertown, Pa.). As the control, physiological saline without test sample was used. The platelet aggregation inhibiting activities of the test sample are expressed as IC50, that is the concentration of the compound at which 50% of the aggregation is inhibited.

Assay [2] addresses T1, PAF receptor (rabbit platelet membranes) (Oryctolagus cuniculus, UniProt G1TEI7).
T1 construct: Rabbit platelets were prepared by centrifugation and washing; tissue Pel-Freez (Rogers, AR); host or cells: rabbit platelets (washed, from citrated whole blood; lysed membranes)
In words: PAF Receptor Binding Assay. As to conditions: 0.6 nM [^3 H]C18 -PAF, 60 minutes, room temperature, calculated as IC50/2. The procedure:
PAF Receptor Binding Assay Citrated whole rabbit blood was obtained from Pel-Freez(Rogers, AR). Rabbit platelets were prepared by centrifugation and washing. The platelets were lysed by freeze-thawing and sonification; Platelet membranes were prepared by centrifugation and washing. Final membrane preparation were stored frozen in 10 mM Tris/5 mM MgCl2 /2 mM EDTA (TME buffer, pH 7.0) with 0.25M sucrose added for membrane stabilization. […] The final volume of the assay was 100 μl. […] The […] and removed. The bound radioactivity was quantitated with a Berthold TLC-Linear Analyzer model LB2842. […] Experiments were repeated at least once. […] Ki values of inhibitory binding constants were calculated according to the methods of the literature[Cheng et al., Biochem.

Assay [3] concerns PAF-induced [^14 C]-serotonin release, rabbit platelets. In words: Inhibitory action on PAF-induced [^14 C]-serotonin release. In kind it is cell-based, rabbit (New Zealand white). The note with it: Oryctolagus cuniculus, Platelet, PAF 1×10^-9 M; for inhibition at 0.2 µM: test compound 2 × 10^-7 M. As for the experimental part: Inhibitory action on PAF-induced [^14 C]-serotonin release
Blood was collected from the hearts of conscious New Zealand white male rabbits weighing 2 to 3 kg. The blood was immediately subjected to a centrifuge at 1400 rpm for 10 minutes to obtain platelet rich plasma(PRP).PRP was incubated with a trace mount of [^14 C]-serotonin for 20 minutes at 22° C. Prelabelled platelets were prepared by centrifugation at 3500 rpm for 10 minutes. The test compound was added to 80 μl of [^14 C] serotonin-labeled platelets in plastic test tubes, and the mixture was incubated for 2 minutes. PAF (1×10^-9 M) was then added to the reaction mixture and incubated for additional 2 minutes at which time 10 μl of cold formaldehyde was added to stop the reactions. The tubes were immediately cooled to 4° C. and centrifuged at 12000 rpm for 2 minutes. The supernatants (80 μl) were assayed for percentage of [^14 C] serotonin release by the conventional methods of measuring ^14 C counts.

T1 sequence (G1TEI7 1-342): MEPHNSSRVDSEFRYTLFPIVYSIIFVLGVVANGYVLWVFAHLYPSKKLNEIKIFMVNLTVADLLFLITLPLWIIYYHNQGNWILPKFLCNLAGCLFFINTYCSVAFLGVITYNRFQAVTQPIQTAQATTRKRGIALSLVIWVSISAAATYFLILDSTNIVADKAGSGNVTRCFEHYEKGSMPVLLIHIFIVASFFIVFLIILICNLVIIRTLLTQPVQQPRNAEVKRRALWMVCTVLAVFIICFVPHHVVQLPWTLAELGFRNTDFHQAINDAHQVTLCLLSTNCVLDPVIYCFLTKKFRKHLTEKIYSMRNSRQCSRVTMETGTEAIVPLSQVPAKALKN

`CCCCCCCCCCCCCCCCCCNC(=O)OC[C@@H]1C[C@H](COC(=O)N(Cc2cccc[n+]2CC)C(C)=O)S1` (relative stereo) [Example 28, cis-2-[[N-Acetyl-N-[[[4-[[(octadecylcarbamoyl)oxy]methyl]-2-thietanyl]methoxy]carbonyl]amino]methyl]-1-ethyl-pyridinium chloride] showed an IC50 in assay [1] of 61 nM. Also, the Ki in assay [2] is 9.8 nM. Turning to `CCCCCCCCCCCCCCCCCCNC(=O)OCC1(COC(=O)CCCCC[n+]2ccccc2)COC1` [Example 12, N-[5-[[[3-[[(Octadecylcarbamoyl)oxy]methyl]-3-oxetanyl]methoxy]carbonyl]pentyl]pyridinium bromide], in assay [3], 0.2 µM produced 94% inhibition. Also, testing at 0.05 µM in assay [3] (test compound 5 × 10^-8 M) gave an inhibition of 58%. In assay [1], `CCCCCCCCCCCCCCCCCCNC(=O)OC[C@H]1C[C@H](COC(=O)N(Cc2cccc[n+]2CC)C(C)=O)S1` (relative stereo) [Example 27, trans-2-[[N-Acetyl-N-[[[4-[[(Octadecylcarbamoyl)oxy]methyl]-2-thietanyl]methoxy]carbonyl]amino]methyl]-1-ethyl-pyridinium chloride] had an IC50 of 57 nM. Also, the Ki in assay [2] was 4.3 nM.

In turn, `CCCCCCCCCCCCCCCCOC[C@H]1C[C@H](COC(=O)N(Cc2cccc[n+]2CC)C(C)=O)S1` (relative stereo) [Example 32, trans-2-[[N-Acetyl-N-[[[4-[(hexadecyloxy)methyl]-2-thietanyl]methoxy]carbonyl]amino]methyl]-1-ethyl-pyridinium chloride] gave an IC50 in assay [1] of 52 nM. For the same molecule, in assay [2], the Ki was 20 nM.

As to `CCCCCCCCCCCCCCCCCCNC(=O)OC[C@H]1C[C@H](COC(=O)N(Cc2cccc[n+]2CC)C(C)=O)O1` (relative stereo) [Example 5, trans-2-[[N-Acetyl-N-[[[4-[[(octadecylcarbamoyl)oxy]methyl]-2-oxetanyl]methoxy]carbonyl]amino]methyl]-1-ethyl-pyridinium iodide], in assay [3], 0.2 µM produced 97% inhibition. Regarding `CCCCCCCCCCCCCCCCNC(=O)OC[C@@H]1C[C@@H](COC(=O)N(Cc2cccc[n+]2CC)C(=O)c2ccccc2OC)S1` (relative stereo) [Example 31, trans-2-[[N-(2-Methoxy)benzoyl-N-[[[4-[[(hexadecylcarbamoyl)oxy]methyl]-2-thietanyl]methoxy]carbonyl]amino]methyl]1-ethyl-pyridinium chloride], the IC50 in assay [1] was 69 nM. Take `CCCCCCCCCCCCCCCCCCNC(=O)OC[C@H]1C[C@H](COC(=O)N(Cc2cccc[n+]2CC)C(C)=O)C1` [Example 19, trans-2-[[N-Acetyl-N-[[[3-[[(octadecylcarbamoyl)oxy]methyl]-1-cyclobutyl]methoxy]carbonyl]amino]methyl]-1-ethyl-pyridinium iodide]: the IC50 in assay [1] is 56 nM. Further, in assay [2], the Ki was 4.3 nM. For `CCCCCCCCCCCCCCCCNC(=O)OC[C@H]1C[C@H](COC(=O)N(Cc2cccc[n+]2CC)C(C)=O)S1` (relative stereo) [Example 29, trans-2-[[N-Acetyl-N-[[[4-[[(hexadecylcarbamoyl)oxy]methyl]-2-thietanyl]methoxy]carbonyl]amino]methyl]-1-ethyl-pyridinium chloride] the same measures were 21 nM and 9.8 nM. Turning to `CCCCCCCCCCCCCCCCCCNC(=O)OCC1(COC(=O)N(Cc2cccc[n+]2CC)C(C)=O)CS(=O)(=O)C1` [Example 38, 2-[[N-Acetyl-N-[[[3-[[(octadecylcarbamoyl)oxy]methyl]thietane 1,1-dioxide-3-yl]methoxy]carbonyl]amino]methyl]-1-ethyl-pyridinium iodide], in assay [1], half-maximal inhibition (IC50) required 178 nM. Besides, in assay [2], the Ki was 278 nM. For `CCCCCCCCCCCCCCCCNC(=O)OCC1(COC(=O)N(Cc2cccc[n+]2CC)C(C)=O)CCCC1` [Example 20, 2-[[N-Acetyl-N-[[[1-[[(hexadecylcarbamoyl)oxy]methyl]-1-cyclopentyl]methoxy]carbonyl]amino]methyl]-1-ethyl-pyridinium iodide], in that order: 350 nM and 1.2 nM. In turn, `CCCCCCCCCCCCCCCCCCNC(=O)OC[C@@H]1C[C@@H](COC(=O)N(Cc2cccc[n+]2CC)C(=O)c2ccccc2OC)S1` (relative stereo) [Example 30] came in with an IC50 in assay [1] of 84 nM. In assay [1], `CCCCCCCCCCCCCCCCCCNC(=O)OC[C@@H]1C[C@@H](COC(=O)N(Cc2cccc[n+]2CC)C(C)=O)N1C(C)=O` (relative stereo) [Example 43, 2-[[N-Acetyl-N-[[[4-[[(octadecylcarbamoyl)oxy]methyl]-1-acetylazetidine-2-yl]methoxy]carbonyl]amino]methyl]-1-ethyl-pyridinium chloride] returned an IC50 of 29 nM. In assay [2], the Ki was 35 nM. `CCCCCCCCCCCCCCCCCCNC(=O)OCC1(COC(=O)CCCC[n+]2ccsc2)CCCC1` [Example 22, 3-[4-[[[1-[[(Octadecylcarbamoyl)oxy]methyl]-1-cyclopentyl]methoxy]carbonyl]butyl]thiazolium bromide] returned an IC50 in assay [1] of 1140 nM. On to `CCCCCCCCCCCCCCCCCCNC(=O)OCC1(COC(=O)N(Cc2cccc[n+]2CC)C(C)=O)CCCC1` [Example 16, 2-[[N-Acetyl-N-[[[1-[[(octadecylcarbamoyl)oxy]methyl]-1-cyclopentyl]methoxy]carbonyl]amino]methyl]-1-ethyl-pyridinium iodide], for which the IC50 in assay [1] was 573 nM. Moreover, the Ki in assay [2] was 3.8 nM.

Molecule `CCCCCCCCCCCCCCCCCCNC(=O)OC[C@H]1C[C@H](COCCCC[n+]2cccc3ccccc32)S1` (relative stereo) [Example 35, trans-N-[4-[[4-[[(Octadecylcarbamoyl)oxy]methyl]-2-thietanyl]methoxy]butyl]quinolinium bromide] gave an IC50 in assay [1] of 275 nM. With `CCCCCCCCCCCCCCCCOCC1(COC(=O)N(Cc2cccc[n+]2CC)C(C)=O)COC1` [Example 9, 2-[[N-Acetyl-N-[[[3-[(hexadecyloxy)methyl]-3-oxetanyl]methoxy]carbonyl]amino]methyl]-1-ethyl-pyridinium iodide], in assay [1], the IC50 is 219 nM. In addition, in assay [2], the Ki is 110 nM. As to `CCCCCCCCCCCCCCCCOCC1(COC(=O)CCCC[n+]2cccc3ccccc32)CSC1` [Example 42, N-[4-[[[3-[(Hexadecyoxy)methyl]-3-thietanyl]methoxy]carbonyl]butyl]quinolinium bromide], inhibition in assay [1] was half-maximal at 658 nM (IC50). Regarding `CCCCCCCCCCCCCCCCCCNC(=O)OCC1(COC(=O)N(Cc2cccc[n+]2CC)C(C)=O)C[S+]([O-])C1` (stereo not shown) [Example 37, 2-[[N-Acetyl-N-[[[3-[[(octadecylcarbamoyl)oxy]methyl]thietane 1-oxide-3-yl]methoxy]carbonyl]amino]methyl]-1-ethyl-pyridinium iodide], in assay [1], half-maximal inhibition (IC50) required 125 nM. The Ki in assay [2] is 9.3 nM. `CCCCCCCCCCCCCCCCCCNC(=O)OCC1(COC(=O)CCCCC[n+]2cccc3ccccc32)CSC1` [Example 41, N-[5-[[[3-[[(Octadecylcarbamoyl)oxy]methyl]-3-thietanyl]methoxy]carbonyl]pentyl]quinolinium bromide] showed an IC50 in assay [1] of 57 nM. The Ki in assay [2] is 30 nM. In turn, `CCCCCCCCCCCCCCCCCCNC(=O)OC[C@H]1C[C@H](COC(=O)CCCC[n+]2cccc3ccccc32)S1` (relative stereo) [Example 34, trans-N-[4-[[[4-[[(Octadecylcarbamoyl)oxy]methyl]-2-thietanyl]methoxy]carbonyl]butyl]quinolinium bromide] returned an IC50 in assay [1] of 350 nM. Take `CCCCCCCCCCCCCCCCNC(=O)OCC1(COC(=O)N(Cc2cccc[n+]2CC)C(C)=O)COC1` [Example 8, 2-[[N-Acetyl-N-[[[3-[[(hexadecylcarbamoyl)oxy]methyl]-3-oxetanyl]methoxy]carbonyl]amino]methyl]-1-ethyl-pyridinium iodide]: the IC50 in assay [1] worked out at 93 nM. The Ki in assay [2] was 95 nM. For `CCCCCCCCCCCCCCCCCCNC(=O)OCC1(COC(=O)CCCC[n+]2cccc3ccccc32)CCCC1` [Example 23, N-[4-[[[1-[[(Octadecylcarbamoyl)oxy]methyl]1-cyclopentyl]methoxy]carbonyl]butyl]quinolinium bromide] the same measures were 95 nM and 9.4 nM.
